Here are results for three compounds from US4127661A, “Piperazine alkanols” (Serdex - Societe d'Etudes, de Recherches, de Diffusion et …, priority 1976, dated 1978).

Each structure is given as a SMILES string. Counter-ions that a name gives are not always drawn.

A short description of data set [1]: Acute toxicity, oral. The note with it: rat, in vivo, single administration, fasted male Sprague Dawley rats, after 14 days, p = 0.05, Litchfield and Wilcoxon. On the procedure: Acute toxicity was studied orally in male Sprague Dawley rats kept fasting 24 hours prior to the test, distributed in homogeneous groups of 10 animals each.
The animals were given a single administration of the test materials and were kept under observation during 14 days.
The LD50 were determined after 14 days at a probability threshold of p = 0.05, according to the method of Litchfield and Wilcoxon.

For data set [2], the system named is femoral artery. The data set can be described thus: Peripheral action of the compounds of Examples 1, 2 and 4 (femoral rate of flow, local peripheral resistance, blood pressure), 2.5 mg/kg. It counts as in vivo, dogs. The note with it: for Femoral rate of flow: increase; for Local peripheral resistance: at 30mn, decrease. On the procedure:
(§1) The tests were conducted with pentobarbital anesthetized dogs (35 mg/kg/i.v.) under artificial respiration with pentobarbital infusion (5 mg/kg/hr).
(§2) The carotid arterial pressure was recorded by means of an electromagnetic capsule connected to the carotid artery. From said determination were calculated the mean blood pressure, the systolic pressure, the diastolic pressure and the pulse pressure.
(§3) The femoral rate of flow was recorded by means of an electromagnetic sensor placed around the femoral artery. Local peripheral resistance was calculated from said parameters.

Data set [3] relates to femoral artery. Kind of data set: Vasodilator action in anesthetized dogs (femoral rate of flow, local peripheral resistance), 5 mg/kg i.v. It counts as in vivo. Conditions: 5 mg/kg intravenously. The procedure:
as §1, §2, §3
The compounds of the formula (I) were administered intravenously at a dosage of 5 mg/kg. Two tests were conducted with each compound.

Regarding `CC(=O)C(c1ccccc1)N1CCN(CCOc2ccccc2)CC1` (stereo not shown) [Example 1, 1-[N-(2-phenoxy-1-ethyl)piperazino]-1-phenylacetone], in data set [1], the LD50 at 336 h was found to be 800 mg/kg. Further, the “Femoral rate of flow” value in data set [2] (1 hour) is above 25%. The same compound came in with a Local peripheral resistance in data set [2] of 20%. In data set [3], the “assessment among the compounds tested for peripheral vasodilator activity” value (from here on “assessment among the compounds tested”) is on record as “particularly valuable”.

In the case of `CC(O)C(c1ccccc1)N1CCN(CCOc2ccccc2)CC1` (stereo not shown) [Example 2, 1-[N-(2-phenoxy-1-ethyl)piperazino]-1-phenyl-2-propanol], in data set [1], the LD50 at 336 h amounted to 250 mg/kg. The “Femoral rate of flow” value in data set [2] (30mn) is given as above 15%; in data set [2] (on injection (injec.)), above 100%. For the same compound, the Local peripheral resistance in data set [2] turned out to be 15%. In addition, in data set [3], the “assessment among the compounds tested” value is listed as “particularly valuable”.

In turn, `CCC(O)C(c1ccccc1)N1CCN(CCOc2ccccc2C)CC1` (stereo not shown) [Example 4, 1-(N-[2-(2-methyl-1-phenoxy)-1-ethyl]piperazino)-1-phenyl-2-butanol dihydrochloride] displayed a median lethal dose (LD50) at 336 h in data set [1] of 700 mg/kg. The “Femoral rate of flow” value in data set [2] (1 hour) is above 30%. Besides, in data set [2], the Local peripheral resistance was found to be 30%. For the same compound, the “assessment among the compounds tested” value in data set [3] is given as “particularly valuable”.

Broadly, the LD50 is the dose at which mortality reaches 50%. High values mean a less toxic substance, low ones a more toxic substance.
